Here are results for 2 compounds from PMC7179297, “Preclinical Antimalarial Combination Study of M5717, a Plasmodium falciparum Elongation Factor 2 Inhibitor, and Pyronaridine, a Hemozoin Formation Inhibitor” (Antimicrobial Agents and Chemotherapy, 2020).

The test system of data set [1] is P. falciparum NF54 strain. The data set can be described thus: [3H]hypoxanthine incorporation assay, individual drugs. Type of data set: cell-based. Particulars: Plasmodium falciparum, 72 h. On the procedure:
IC50 and drug interaction studies were performed as previously described ([27], [28]). […] Cultures were harvested onto glass fiber filters, washed, and the radioactivity was counted using a MicroBetaplate liquid scintillation counter and recorded as counts per minute (cpm) per well. Results are expressed as a percentage of the untreated controls (see the supplemental material for more details). page 2: 25 In vitro isobolograms 26 Compounds were tested against intraerythrocytic forms of P. falciparum derived from asynchronous stock cultures 27 of lab strain NF54 (Schiphol airport strain of unknown origin), as previously described.i,ii The culture medium was […] 29 mM HEPES, 25 mM NaHCO3 (pH 7.3), 0.36 mM hypoxanthine and 100 μg/mL neomycin. Human type A+ 30 erythrocytes served as host cells. […] 31 in humidified modular chambers. Testing of the individual drugs was carried out in 96-well microtiter plates. The 32 compounds were dissolved in DMSO (10 mg/mL), prediluted in hypoxanthine-free culture medium and titrated in […] After addition of an equal volume of parasite culture with a parasitemia of […] Parasite growth was measured by the incorporation of radiolabelled [3H]hypoxanthine (0.25 µCi in […] 37 assay duration) prior to the termination of the test. Cultures were harvested onto glass-fiber filters and washed with 38 distilled water. The radioactivity was counted using a MicroBetaplate liquid scintillation counter (Wallac, Zürich, 39 Switzerland) and the results recorded as counts per minute (cpm) per well at each drug concentration and expressed 40 as percentage of the untreated controls. Fifty percent inhibitory concentrations (IC50) were determined by linear 41 interpolation.v 42 43 For data interpretation, the IC50s of the drugs in combination were expressed as fractions of the IC50s of the drugs 44 alone. These fractions were called “Fractional Inhibitory Concentrations” (FIC) for drug A and for drug B, 45 respectively. 46 FIC Drug A = IC50 A (B) IC50 A […] 49 50 Formulation 51 Pyronaridine (tetraphosphate salt) and […] (succinate salt) were solubilized in a vehicle consisting of 70% […] 54 55 2

The test system of data set [2] is P. falciparum eEF2 mutant parasites. On the set-up: method as in PMID 26085270. The note with it: cited from earlier work.
For data set [3] the following is noted: 400 mg in healthy volunteers ref 16; cited from earlier work.

Read-outs that look alike come from different tables or passages of the source.

On to `O=C(NCCN1CCCC1)c1cc(-c2ccc(CN3CCOCC3)cc2)nc2ccc(F)cc12` [M5717], for which, in data set [1], the EC50 – broadly, the concentration giving half of the maximal effect – was determined as 0.3 nM. The IC50 fold shift in data set [2] (eEF2 mutation L755F ref 7) is given as 660 fold; in data set [2] (eEF2 mutation P754A ref 7) it was 135 fold; in data set [2] (eEF2 mutation P754S ref 7), 200 fold. Also, in data set [2] (eEF2 mutation Y186N, high-grade resistance ref 7), the “fold shift of IC50” value is listed as > 3,000 fold.
As to `COc1ccc2nc3cc(Cl)ccc3c(Nc3cc(CN4CCCC4)c(O)c(CN4CCCC4)c3)c2n1` [pyronaridine], the t1/2 in data set [3] is 10 days. The EC50 in data set [1] worked out at 3.5 nM.
